We go through 13 compounds from US20130225548A1, “Pyridine Derivative and Medicinal Agent” (NIPPON SHINYAKU CO., LTD., priority 2010, published 2013).

pIC50: −log10 of the molar value. Counter-ions that a name gives are not always drawn. Some results are limits rather than exact numbers.

This experiment concerns the target T1, Syk tyrosine kinase (Homo sapiens, UniProt P43405).
T1 construct: purchased Carna Biosciences, Inc
Kind of experiment: Test for Syk tyrosine kinase inhibitory activity (ELISA). The experiment is classed as biochemical. Particulars: Syk tyrosine kinase (Carna Biosciences), 25 μM ATP in substrate solution, 30° C. 1 hour, n=2; read-out: Evaluation (IC50, concentration inhibiting the tyrosine kinase activity at 50%). The method, boiled down: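 Syk kinase (0.025 nM stock before addition) with 625 nM biotinylated peptide and 25 μM ATP (substrate-solution levels) in Tris pH 7.5, MgCl2, DTT; 1 h at 30 °C on streptavidin plates. Phosphotyrosine detected by HRP anti-pTyr antibody, TMB, A450; IC50 by non-linear regression.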
For `N#Cc1ccnc(Nc2cc(C3CC3)cc(-c3ccc4c(c3)ncn4CC3(O)CCCCC3)n2)c1` [Example 120, 2-[(4-cyclopropyl-6-{1-[(1-hydroxycyclohexyl)methyl]-1H-benzimidazol-5-yl}pyridin-2-yl)amino]pyridine-4-carbonitrile hydrochloride], the pIC50 is 6.30 to 7.30.

On to `N#Cc1ccnc(Nc2cc(C3CC3)cc(-c3ccc(C#N)nc3)n2)c1` [Example 17, 6-[(4-cyanopyridin-2-yl)amino]-4-cyclopropyl-2,3′-bipyridine-6′-carbonitrile hydrochloride], for which the pIC50 is 6.30 to 7.30.

Turning to `N#Cc1ccnc(Nc2cc(C3CC3)cc(-c3ccc(NCCN)nc3)n2)c1` [Example 19, 2-({6′-[(2-aminoethyl)amino]-4-cyclopropyl-2,3′-bipyridin-6-yl}amino)pyridine-4-carbonitrile dihydrochloride], the pIC50 is greater than 8.30.

On to `N#Cc1ccnc(Nc2cc(C3CC3)cc(-c3ccc(N4CCN(C(N)=O)CC4=O)nc3)n2)c1` [Example 67, 4-{6-[(4-cyanopyridin-2-yl)amino]-4-cyclopropyl-2,3′-bipyridin-6′-yl}-3-oxopiperazine-1-carboxamide hydrochloride], for which the pIC50 is 6.30 to 7.30.

Consider `N#Cc1ccnc(Nc2cc(C3CC3)cc(-c3cccc(N4CCCN(C(N)=O)CC4)c3)n2)c1` [Example 78, 4-(3-{6-[(4-cyanopyridin-2-yl)amino]-4-cyclopropylpyridin-2-yl}phenyl)-1,4-diazepane-1-carboxamide hydrochloride], for which the pIC50 was 7.30 to 8.30.

In the case of `COC(=O)CCn1cnc2ccc(-c3cc(C4CC4)cc(Nc4cc(C#N)ccn4)n3)cc21` [Example 126, methyl 3-(6-{6-[(4-cyanopyridin-2-yl)amino]-4-cyclopropylpyridin-2-yl}1H-benzimidazol-1-yl)propanonate hydrochloride], the pIC50 was 6.30 to 7.30.

For `N#Cc1ccnc(Nc2cc(C3CC3)cc(-c3cncc(OC4CNC4)c3)n2)c1` [Example 102, 2-{[5′-(azetidin-3-yloxy)-4-cyclopropyl-2,3′-bipyridin-6-yl]amino}pyridine-4-carbonitrile hydrochloride], the pIC50 is 7.30 to 8.30.

For the compound `N#Cc1ccnc(Nc2cc(C3CC3)cc(-c3ccc(CO)nc3)n2)c1` [Example 71, 2-{[4-cyclopropyl-6′-(hydroxymethyl)-2,3′-bipyridin-6-yl]amino}pyridine-4-carbonitrile hydrochloride], the pIC50 was 6.30 to 7.30.

On to `N#Cc1ccnc(Nc2cc(C3CC3)cc(-c3cncc(NC[C@H]4CCNC4)c3)n2)c1` [Example 97, 2-[(4-cyclopropyl-5′-{[(3S)-pyrrolidin-3-ylmethyl]amino}-2,3′-bipyridin-6-yl)amino]pyridine-4-carbonitrile hydrochloride], for which the pIC50 was greater than 8.30.

`N#Cc1ccnc(Nc2cc(C3CC3)cc(-c3ccc(N4CCN(CC(N)=O)CC4)nc3)n2)c1` [Example 7, 2-(4-{6-[(4-cyanopyridin-2-yl)amino]-4-cyclopropyl-2,3′-bipyridin-6′-yl}piperazin-1-yl)acetamide hydrochloride]: the pIC50 was 6.30 to 7.30.

Consider `CC(C)(CO)CNc1ccc(-c2cc(C3CC3)cc(Nc3cc(C#N)ccn3)n2)cn1` [Example 24, 2-({4-cyclopropyl-6′-[(3-hydroxy-2,2-dimethylpropyl)amino]-2,3′-bipyridin-6-yl}amino)pyridine-4-carbonitrile hydrochloride], for which the pIC50 is 7.30 to 8.30.

In the case of `N#Cc1ccnc(Nc2cc(C3CC3)cc(-c3cncc(OC4CCN(CC(N)=O)CC4)c3)n2)c1` [Example 103, 2-[4-({6-[(4-cyanopyridin-2-yl)amino]-4-cyclopropyl-2,3′-bipyridin-5′-yl}oxy)-piperidin-1-yl]acetamide hydrochloride], the pIC50 is 7.30 to 8.30.

Regarding `N#Cc1ccnc(Nc2cc(C3CC3)cc(-c3ccc4ccnc(N5CCNCC5)c4c3)n2)c1` [Example 163, 2-({4-cyclopropyl-6-[1-(piperazin-1-yl)isoquinolin-7-yl]pyridin-2-yl}amino)pyridine-4-carbonitrile hydrochloride], the pIC50 was 7.30 to 8.30.
